# ChEMBL document CHEMBL1148889, “Biaryl cannabinoid mimetics--synthesis and structure-activity relationship” (Bioorg Med Chem Lett, 2007)
# Where “and” joins values, the source holds several entries; their conditions need not be identical. Identical values can stand only once.
# Assays:
# Cannabinoid receptor 2 = Cannabinoid receptor 2 (Homo sapiens, UniProt P34972); experiment: Displacement of [3H]CP-55940 from cloned human CB2 receptor
# [1] = target: Cannabinoid receptor (Homo sapiens) (UniProt P34972+P21554); experiment: Selectivity for human CB2 receptor over human CB1 receptor; format: protein assay
# Cannabinoid receptor 1 = Cannabinoid receptor 1 (Homo sapiens, UniProt P21554); experiment: Displacement of [3H]CP-55940 from cloned human CB1 receptor
# Chain of Cannabinoid receptor 1 (P21554 whole entry): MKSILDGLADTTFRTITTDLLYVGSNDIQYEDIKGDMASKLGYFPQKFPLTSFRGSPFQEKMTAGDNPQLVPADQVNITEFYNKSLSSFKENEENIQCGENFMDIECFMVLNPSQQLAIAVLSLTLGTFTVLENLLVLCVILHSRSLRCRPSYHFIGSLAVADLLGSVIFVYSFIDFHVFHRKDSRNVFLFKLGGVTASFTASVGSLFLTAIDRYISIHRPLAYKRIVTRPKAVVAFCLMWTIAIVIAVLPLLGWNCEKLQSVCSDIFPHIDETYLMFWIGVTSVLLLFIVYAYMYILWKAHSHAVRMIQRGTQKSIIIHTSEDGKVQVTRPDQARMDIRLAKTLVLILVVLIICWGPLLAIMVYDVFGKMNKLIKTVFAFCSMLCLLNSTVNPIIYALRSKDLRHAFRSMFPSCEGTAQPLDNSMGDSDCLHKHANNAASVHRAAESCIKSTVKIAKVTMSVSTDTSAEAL
# Chain of Cannabinoid receptor 2 (P34972 whole entry): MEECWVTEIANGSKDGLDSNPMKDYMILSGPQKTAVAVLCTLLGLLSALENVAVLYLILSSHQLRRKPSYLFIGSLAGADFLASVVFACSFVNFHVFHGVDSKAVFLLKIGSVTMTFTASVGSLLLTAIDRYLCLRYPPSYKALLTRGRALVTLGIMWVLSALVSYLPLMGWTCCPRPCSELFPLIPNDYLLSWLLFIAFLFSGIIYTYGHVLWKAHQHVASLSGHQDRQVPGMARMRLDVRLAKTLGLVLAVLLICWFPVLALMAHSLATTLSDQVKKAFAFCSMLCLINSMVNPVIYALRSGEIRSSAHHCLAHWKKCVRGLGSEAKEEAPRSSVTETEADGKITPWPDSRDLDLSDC
# Chain of Cannabinoid receptor (Homo sapiens) (P21554 whole entry, looked up): as the sequence (P21554 whole entry) above
# Chain of Cannabinoid receptor (Homo sapiens) (P34972 whole entry, looked up): as the sequence (P34972 whole entry) above
SMILES,Ki (Cannabinoid receptor 2),Ratio Ki [1],Ki (Cannabinoid receptor 1)
CCCCCCC1(c2ccc(-c3cc(C)cc(C)c3)c(O)c2)CCCC1,5.5 nM,0.5,2.9 nM
COC(=O)CCCCC(C)(C)c1ccc(-c2cc(C)cc(C)c2)c(O)c1,14 nM,2,24 nM
CCCCCCC(C)(C)c1ccc(-c2cc(C)cc(C)c2)cc1,–,> 10,> 30000 nM
CCCCCCC(C)(C)c1ccc(-c2cc(C)cc(C)c2)c(C(=O)O)c1,> 1000 nM,–,> 1000 nM
CCCCCCC(C)(C)c1ccc(-c2cc(C)cc(C)c2)c(COC(=O)CN2CCOCC2)c1,0.81 nM,500,370 nM
CCCCCCC(C)(C)c1ccc(-c2cc(C)ccc2C)c(O)c1,6.6 nM,0.7,4.6 nM
CCCCCCC(C)(C)c1ccc(-c2cc(C)cc(C)c2)c(CN)c1,380 nM,4,1500 nM
CCCCCCC(C)(C)c1ccc(-c2cc(C)cc(C)c2)c(CO)c1,480 nM,0.8,360 nM
CNC(=O)CCC(C)(C)c1ccc(-c2cc(C)cc(C)c2)c(O)c1,140 nM,6,840 nM
CCCCCCC(C)(C)c1ccc(-c2cc(C)cc(C)c2)c(C(=O)OC)c1,–,2 and 1,–
CCCCCCC(C)(C)c1ccc(-c2cc(C)cc(C)c2)c(N)c1,51 nM,2,80 nM
CCCCCCC(C)(C)c1ccc(-c2cc(C)cc(C)c2)c(OC)c1,34 nM,9,320 nM
CCCCCCC(C)(C)c1ccc(-c2ccc(C)c(C)c2)c(O)c1,830 nM,0.7,600 nM
CCCCCCC(C)(C)c1ccc(-c2c(C)cccc2C)c(O)c1,18 nM,0.1,1.7 nM
Cc1cc(C)cc(-c2ccc(C(C)(C)CCCCCO)cc2O)c1,3.6 nM,10,39 nM
CCCCCCC1(c2ccc(-c3cc(C)cc(C)c3)c(O)c2)CC1,55 nM,0.2,13 nM
CCCCCCC(C)(C)c1ccc(-c2cc(C)cc(C)c2)c(CN2CCOCC2)c1,660 nM,6,3900 nM
CCCCCCC(C)(C)c1ccc(-c2cccc(OC)c2)c(O)c1,580 nM,0.2,91 nM
Cc1cc(C)cc(-c2ccc(C(C)(C)CCCCC(=O)O)cc2O)c1,> 1000 nM,–,> 1000 nM
CCCCCCC(C)(C)c1ccc(-c2cccc(C)c2C)c(O)c1,20 nM,2,49 nM
CCCCCCC(C)(C)c1ccc(-c2cc(C)cc(C)c2)c(C(=O)NC(C)C)c1,> 1000 nM,–,> 1000 nM

SMILES,Ki (Cannabinoid receptor 2),Ratio Ki [1],Ki (Cannabinoid receptor 1)
CCCCCCC(C)(C)c1ccc(-c2cc(C)cc(C)c2)c(O)c1,2.3 nM,1,2.7 nM
Cc1cc(C)cc(-c2ccc(C(C)(C)CO)cc2O)c1,600 nM,4,2200 nM
CCCCCCC1(c2ccc(-c3cc(C)cc(C)c3)c(O)c2)CCCCC1,1.7 nM,1,1.8 nM
CCCCCCC(C)(C)c1ccc(-c2cccc(N)c2)c(O)c1,44 nM,0.3,15 nM
CNC(=O)CCCCC(C)(C)c1ccc(-c2cc(C)cc(C)c2)c(O)c1,39 nM,2,96 nM
CCCCCCC(C)(C)c1ccc(-c2cccnc2)c(O)c1,20 nM,1,23 nM
CCCCCCC(C)(C)c1ccc(-c2ccc(N)cc2)c(O)c1,1000 nM,0.3,320 nM
CCCCCCC(C)(C)c1ccc(-c2ccc(C#N)cc2)c(O)c1,> 1000 nM,–,> 1000 nM
CCCCCCC(C)(C)c1ccc(-c2cccc(C(=O)O)c2)c(O)c1,> 1000 nM,–,> 1000 nM
CCCCCCC(C)(C)c1ccc(-c2cccc(C#N)c2)c(O)c1,45 nM,0.6,27 nM
CNC(=O)C(C)(C)c1ccc(-c2cc(C)cc(C)c2)c(O)c1,> 1000 nM,–,> 1000 nM
CCCCCCC(C)(C)c1ccc(-c2cc(C)cc(C)c2)c(C(N)=O)c1,320 nM,1,370 nM
CCCCCCC(C)(C)c1ccc(-c2ccccc2N)c(O)c1,17 nM,0.3,5.2 nM
Cc1cc(C)cc(-c2ccc(C(C)(C)C(=O)O)cc2O)c1,> 1000 nM,–,> 1000 nM
CCCCCCC(C)(C)c1ccc(-c2cccc(OC)c2OC)c(O)c1,7.8 nM,4,34 nM
Cc1cc(C)cc(-c2ccc(C(C)(C)CCCO)cc2O)c1,56 nM,20,1100 nM
CCCCCCC(C)(C)c1ccc(-c2ccccc2OC)c(O)c1,1 nM,2,1.7 nM
COC(=O)C(C)(C)c1ccc(-c2cc(C)cc(C)c2)c(O)c1,16 nM,10,160 nM
CCCCCCC(C)(C)c1ccc(-c2ccc(OC)c(OC)c2)c(O)c1,1700 nM,0.8,1400 nM
COC(=O)CCC(C)(C)c1ccc(-c2cc(C)cc(C)c2)c(O)c1,5.6 nM,20,120 nM
